Assay results from ChEMBL document CHEMBL5244272 (Eur J Med Chem, 2021).
Converted amounts (≈) assume the structure as drawn.

What was measured:
Plasmodium falciparum [1] = experiment: Antimalarial activity against Plasmodium falciparum 3D7; format: functional, organism-based
Plasmodium falciparum [2] = experiment: Antimalarial activity against Plasmodium falciparum Dd2; format: functional, organism-based
Plasmodium falciparum [3] = experiment: Antimalarial activity against Plasmodium falciparum IPC5202; format: functional, organism-based
Plasmodium falciparum [4] = experiment: Antimalarial activity against Plasmodium falciparum IPC4912; format: functional, organism-based
Plasmodium falciparum [5] = experiment: Antimalarial activity against chloroquine resistant Plasmodium falciparum FcB1/Colombia; format: functional, organism-based
[6] = Selectivity index, ratio of IC50 for human AB943 to IC50 for chloroquine resistant Plasmodium falciparum FcB1/Colombia
Plasmodium falciparum [7] = experiment: Antimalarial activity against Plasmodium falciparum K1; format: functional, organism-based
Plasmodium falciparum [8] = experiment: Antimalarial activity against chloroquine sensitive Plasmodium falciparum FCR-3; format: functional, organism-based
Plasmodium berghei [9] = experiment: Antimalarial activity against Plasmodium berghei N strain infected in mouse at 15 mg/kg, ip administered once daily for 4 days; format: functional; details: time 4 day
Plasmodium berghei [10] = experiment: Antimalarial activity against Plasmodium berghei N strain infected in mouse at 30 mg/kg, ip administered once daily for 4 days; format: functional; details: time 4 day
[11] = Cytotoxicity against human MRC5 cells; format: toxicity, cell-based
Plasmodium falciparum [12] = experiment: Antimalarial activity against Plasmodium falciparum IV-V gametocytes; format: functional, organism-based
Plasmodium vinckei [13] = experiment: Antimalarial activity against Plasmodium vinckei infected in mouse assessed as reduction in parasitaemia at 50 mg/kg, po or […], ip measured on day 5; format: functional; set-up: scale not given: the % may be the effect or the level left
Plasmodium vinckei [14] = experiment: Antimalarial activity against Plasmodium vinckei infected in mouse assessed as reduction in parasitaemia at 25 mg/kg, po or 7.5 mg/kg, ip measured on day 5; format: functional; set-up: scale not given: the % may be the effect or the level left
Plasmodium falciparum [15] = experiment: Antimalarial activity against Plasmodium falciparum FcB1 at 1 ng/ml; format: functional
Plasmodium falciparum [16] = experiment: Antimalarial activity against Plasmodium falciparum FcB1 at 10 ng/ml; format: functional
Plasmodium falciparum [17] = experiment: Antimalarial activity against Plasmodium falciparum FcB1 at 100 ng/ml; format: functional
Plasmodium falciparum [18] = experiment: Antimalarial activity against ART-sensitive Plasmodium falciparum 3D7; format: functional, organism-based
Plasmodium falciparum [19] = experiment: Antimalarial activity against ART-sensitive Plasmodium falciparum W2; format: functional, organism-based
Plasmodium falciparum [20] = experiment: Antimalarial activity against ART-sensitive Plasmodium falciparum NF54; format: functional, organism-based
Plasmodium falciparum [21] = experiment: Antimalarial activity against ART-resistant Plasmodium falciparum Dd2 harboring R539T mutant; format: functional, organism-based
Plasmodium falciparum [22] = experiment: Antimalarial activity against ART-resistant Plasmodium falciparum NF54 harboring […] mutant; format: functional, organism-based
Plasmodium falciparum [23] = experiment: Antimalarial activity against Plasmodium falciparum; format: functional, organism-based
Plasmodium falciparum [24] = experiment: Antimalarial activity against Plasmodium falciparum W2; format: functional, organism-based
Plasmodium falciparum [25] = experiment: Antimalarial activity against late blood stage Plasmodium falciparum NF54 gametocytes; format: functional, organism-based
Plasmodium falciparum [26] = experiment: Antimalarial activity against Plasmodium falciparum D10; format: functional, organism-based
Plasmodium yoelii [27] = experiment: Antimalarial activity against Plasmodium yoelii infected in sc dosed mouse; format: functional
Plasmodium berghei [28] = experiment: Antimalarial activity against Plasmodium berghei infected in sc dosed mouse; format: functional; details: Plasmodium berghei
Plasmodium berghei [29] = experiment: Antimalarial activity against Plasmodium berghei infected in po dosed mouse; format: functional
Plasmodium yoelii [30] = experiment: Antimalarial activity against Plasmodium yoelii infected in po dosed mouse; format: functional
Plasmodium berghei [31] = experiment: Antimalarial activity against Plasmodium berghei infected in mouse assessed as increase in survival at 100 mg/kg, po; format: functional
Plasmodium falciparum [32] = experiment: Antimalarial activity against chloroquine-sensitive Plasmodium falciparum NF54 infected in po dosed mouse; format: functional
Plasmodium falciparum [33] = experiment: Antimalarial activity against chloroquine-sensitive Plasmodium falciparum NF54 infected in iv dosed mouse; format: functional
Plasmodium falciparum [34] = experiment: Antimalarial activity against chloroquine-sensitive Plasmodium falciparum NF54; format: functional, organism-based
[35] = Toxicity in brine shrimp; details: artemia salina
Plasmodium falciparum [36] = experiment: Antimalarial activity against Plasmodium falciparum INDO; format: functional, organism-based
Plasmodium falciparum [37] = experiment: Potency index, ratio of chloroquine IC50 to test compound IC50 for Plasmodium falciparum INDO; format: functional
[38] = Cytotoxicity against HEK293 cells; format: toxicity, cell-based; details: human

## Cn1nnc(NCC2CC[C@]3(CC2)OO[C@]2(O3)C3CC4CC(C3)CC2C4)n1 (stereo partly drawn)
Plasmodium falciparum [1]
  IC50: 2.9 nM
Plasmodium falciparum [2]
  IC50: 2.1 nM
Plasmodium falciparum [3]
  IC50: 3.4 nM
Plasmodium falciparum [4]
  IC50: 4.8 nM

## CCOP(=O)(CCCN(O)C(=O)CCC(=O)N(CCCCNC(=O)CC[C@@H]1O[C@@H]2O[C@@]3(C)CC[C@@H]4[C@@H](C)CC[C@@H]([C@@H]1C)[C@]24OO3)CCCNC(=O)CCO[C@H]1O[C@@H]2O[C@]3(C)CC[C@H]4[C@H](C)CC[C@@H]([C@H]1C)[C@@]24OO3)OCC
Plasmodium falciparum [5]
  IC50: 0.36 nM
[6]
  Ratio IC50: 94

## C[C@H]1C(=O)O[C@@H]2O[C@]3(C)CC[C@H]4N(Cc5ccccc5)CC[C@@H]1[C@@]24OO3
Plasmodium falciparum [7]
  IC50: 86 nM
Plasmodium falciparum [8]
  IC50: 58 nM
Plasmodium berghei [9]
  Activity: 69.1%
Plasmodium berghei [10]
  Activity: 95.6%
[11]
  IC50: 160000 nM

## CCCCNC(=O)CCC(C)[C@H]1CCC2C3C(C[C@H](OC(C)=O)[C@@]21C)[C@@]1(C)CCC2(C[C@H]1C[C@H]3OC(C)=O)OOCOO2 (stereo partly drawn)
Plasmodium falciparum [12]
  IC50: 1160 nM

## C[C@H]1[C@@H](OCCN2CC[N+](CCNc3ccnc4cc(Cl)ccc34)(CCO[C@H]3O[C@@H]4O[C@]5(C)CC[C@H]6[C@H](C)CC[C@@H]([C@H]3C)[C@@]46OO5)CC2)O[C@@H]2O[C@]3(C)CC[C@H]4[C@H](C)CC[C@@H]1[C@@]24OO3
Plasmodium vinckei [13]
  Activity: <1%
Plasmodium vinckei [14]
  Activity: <1%

## C[C@H]1C(=O)O[C@@H]2O[C@]3(C)CC[C@H]4N(Cc5ccc(OCCN6CCOCC6)cc5)CC[C@@H]1[C@@]24OO3
Plasmodium falciparum [7]
  IC50: 33 nM
Plasmodium falciparum [8]
  IC50: 18 nM
Plasmodium berghei [9]
  Activity: 98.6%
[11]
  IC50: 35600 nM

## C[C@@H]1CC[C@H]2[C@@H](C)C(=O)N(CCC(=O)N(CC(=O)NC(=O)c3ccccc3)C(C)(C)C)[C@@H]3O[C@]4(C)CC[C@@H]1[C@@]23OO4
Plasmodium falciparum [15]
  Activity: 98%
Plasmodium falciparum [16]
  Activity: 99%
Plasmodium falciparum [17]
  Activity: 100%

## C[C@H]1[C@@H](OCCCNc2ccc([N+](=O)[O-])c3nonc23)O[C@@H]2O[C@]3(C)CC[C@H]4[C@H](C)CC[C@@H]1[C@@]24OO3
Plasmodium falciparum [18]
  IC50: 22.6 nM
Plasmodium falciparum [19]
  IC50: 9.6 nM
Plasmodium falciparum [20]
  IC50: 11.2 nM
Plasmodium falciparum [21]
  IC50: 19.6 nM
Plasmodium falciparum [22]
  IC50: 9.5 nM

## COC1(c2ccc(S(C)(=O)=O)cc2)CCC2(CCCCC2)OO1 (stereo not drawn)
Plasmodium falciparum [23]
  IC50: 31 nM

## C[C@H]1[C@@H](OCCN(CCCNc2ccnc3cc(Cl)ccc23)CCO[C@H]2O[C@@H]3O[C@]4(C)CC[C@H]5[C@H](C)CC[C@@H]([C@H]2C)[C@@]35OO4)O[C@@H]2O[C@]3(C)CC[C@H]4[C@H](C)CC[C@@H]1[C@@]24OO3
Plasmodium vinckei [13]
  Activity: <1%
Plasmodium vinckei [14]
  Activity: <1%

## C[C@H]1[C@H](N2CCS(=O)(=O)CC2)O[C@@H]2O[C@]3(C)CC[C@H]4[C@H](C)CC[C@@H]1[C@@]24OO3
Plasmodium falciparum [24]
  IC50: 0.9 nM
Plasmodium falciparum [18]
  IC50: 0.9 nM
Plasmodium falciparum [19]
  IC50: 0.5 nM
Plasmodium falciparum [20]
  IC50: 0.9 nM
Plasmodium falciparum [21]
  IC50: 1.4 nM
Plasmodium falciparum [22]
  IC50: 0.7 nM
Plasmodium falciparum [25]
  IC50: 42.4 nM
Plasmodium falciparum [26]
  IC50: 1.1 nM

## C[C@H]1[C@H](NC2CCN(Cc3ccccc3)CC2)O[C@@H]2O[C@]3(C)CC[C@H]4[C@H](C)CC[C@@H]1[C@@]24OO3
Plasmodium yoelii [27]
  ED90: 0.85 mg/kg
Plasmodium berghei [28]
  ED90: 0.7 mg/kg
Plasmodium berghei [29]
  ED90: 2.4 mg/kg
Plasmodium yoelii [30]
  ED90: 3 mg/kg

## C[C@@H]1CC[C@H]2[C@@H](C)C(=O)N(CCC(=O)N(CCO)CC(=O)NC(=O)c3ccccc3)[C@@H]3O[C@]4(C)CC[C@@H]1[C@@]23OO4
Plasmodium falciparum [15]
  Activity: 78%
Plasmodium falciparum [16]
  Activity: 99%
Plasmodium falciparum [17]
  Activity: 100%

## C[C@H]1[C@@H](OCC(CO[C@H]2O[C@@H]3O[C@]4(C)CC[C@H]5[C@H](C)CC[C@@H]([C@H]2C)[C@@]35OO4)=NOC(=O)CCC(=O)O)O[C@@H]2O[C@]3(C)CC[C@H]4[C@H](C)CC[C@@H]1[C@@]24OO3
Plasmodium berghei [31]
  Activity: 100%

## C[C@H]1[C@H](CC(C[C@H]2O[C@@H]3O[C@]4(C)CC[C@H]5[C@H](C)CC[C@@H]([C@H]2C)[C@@]35OO4)C(=O)O)O[C@@H]2O[C@]3(C)CC[C@H]4[C@H](C)CC[C@@H]1[C@@]24OO3 (stereo partly drawn)
Plasmodium falciparum [32]
  ED50: 2 mg/kg
Plasmodium falciparum [33]
  ED50: 0.8 mg/kg
Plasmodium falciparum [34]
  EC50: 2.4 nM

## C[C@H]1[C@H](OC(=O)CCCc2ccccc2)O[C@@H]2O[C@]3(C)CC[C@H]4[C@H](C)CC[C@@H]1[C@@]24OO3
Plasmodium falciparum [1]
  IC50: 5.36 nM
[35]
  LC50: 139 µg/mL (≈ 323 µM)

## C=C(c1ccc(-c2cccc3ccccc23)cc1)C1COC2(CCCC2)OO1 (stereo not drawn)
Plasmodium falciparum [36]
  IC50: 59 nM
Plasmodium falciparum [37]
  Ratio IC50: >9
[38]
  CC50: 3300 nM
